assay: Cytotoxicity against mouse NS1 cells; assay type: functional

SMILES | LD99 [µM]
Cc1cc(=O)c2c(o1)-c1cc(O)c(O)cc1OC2 [CITROMYCIN] | 0.1
CS[C@@H]1C(=O)N(C)[C@](Cc2ccc(OCC=C(C)C)cc2)(SC)C(=O)N1C (relative stereo) | 0.15
C[C@@H]1CC(=O)C2=C(O1)c1cc(O)c(O)cc1OC2 | 0.05
